# Data from publication PMC11359831, “Stepwise Structural Simplification of the Dihydroxyanthraquinone Moiety of a Multitarget Rhein-Based Anti-Alzheimer Lead to Improve Drug Metabolism and Pharmacokinetic Properties” (Pharmaceutics, 2024).
# Legend:
# tau aggregation = biological target: T1, tau aggregation (Homo sapiens, UniProt P10636); assay: Tau aggregation inhibition in genetically modified E. coli cells (Th-S fluorescence); assay type: cell-based, Escherichia coli; conditions: live E. coli cells overexpressing tau
# T1 construct: expressed in transfected cells; host or cells: E. coli BL21 (DE3) bearing pTARA and pRKT42
# Protocol: For tau overexpression, M9 minimal medium (10 mL) containing glucose (0.5%), ampicillin (50 μg/mL), chloramphenicol (12.5 μg/mL), and E. coli BL21 (DE3) cells bearing the pTARA plasmid, which carries the RNA polymerase gene of the T7 phage (T7RP) under control of the PBAD promoter, and subsequent transformation with the pRKT42 vector were used instead. In this case, the overnight culture for a 1:500 dilution was added to fresh M9 minimal medium containing glucose (0.5%), chloramphenicol (12.5 μg/mL), ampicillin (50 μg/mL), and Th-S (250 µM).
# (§1) For Aβ42 overexpression, the corresponding E. coli cell cultures were kept growing overnight (37 °C; 250 rpm) until they reached an OD600 = 0.6. These cultures (980 μL) were added to a mixture of 10 μL of a solution of the new compounds in DMSO and 10 μL of 100 mM isopropyl 1-thio-β-D-galactopyranoside (IPTG), to reach a final compound concentration of 10 μM. The same procedure was used for tau overexpression but employing 10 μL of 25% arabinose instead of IPTG. The resulting E. coli cultures were kept growing overnight (37 °C; 1400 rpm) using an Eppendorf Thermomixer (Hamburg, Germany). To prepare a negative control for the assay, showing the highest amount of the amyloidogenic protein, the same quantity of DMSO, without the compounds to be tested, was added to the sample. With the double purpose of obtaining positive controls devoid of the amyloidogenic proteins and assessing the potential intrinsic toxicity of the new compounds, we also prepared samples that had not been treated with either IPTG or arabinose (non-induced samples).
# (§2) To assess the inhibitory activity of compounds 4–7 on Aβ42 and tau aggregation within E. coli cells, a fluorescence assay was employed, using Th-S ([…] stock solution, T1892, Sigma, St. Louis, MO, USA) in double-distilled water (Milli-Q system, Millipore, Bay City, MI, USA) and an Aminco Bowman Series 2 luminescence spectrophotometer (Aminco-Bowman AB2, SLM Aminco, Rochester, NY, USA), working at 25 °C in the wavelength range of 460–600 nm, with λex = 445 nm, slit widths of 4 nm, and λem = 485 nm. The results are given as the average of nine independent experiments, each performed in triplicate.
# Aβ42 aggregation = biological target: T2, Aβ42 aggregation (Homo sapiens, UniProt P05067); assay: Aβ42 aggregation inhibition in genetically modified E. coli cells (Th-S fluorescence); assay type: cell-based, Escherichia coli; conditions: live E. coli cells overexpressing Aβ42
# T2 construct: expressed in transfected cells; host or cells: E. coli BL21 (DE3) bearing pET28a-Aβ42
# Protocol: For Aβ42 overexpression, M9 minimal medium (10 mL) containing kanamycin (50 μg/mL) was added to a colony of E. coli BL21 (DE3) competent cells, bearing the pET28a plasmid (Novagen, Inc., Madison, WI, USA), which contains the DNA sequence encoding for Aβ42. After overnight culture, the volume necessary to obtain a 1:500 dilution was added to fresh M9 minimal medium that contained kanamycin (50 μg/mL) and thioflavin-S (Th-S, 250 µM).
# as §1, §2
# physchem = conditions: 37 °C, aqueous buffer, kinetic from dmso stock
# Protocol: The resulting solutions were incubated at 37 °C. After 2 h incubation, the samples were read using a BMG LABTECH NEPHELOstar Plus laser nephelometer (Ortenberg, Germany).
# [1] = PAMPA-BBB, drugs used for assay validation
# Protocol: The parallel artificial membrane permeability assay for the blood–brain barrier (PAMPA-BBB) [41] was used to assess the in vitro brain permeability of the new compounds. For the assay, the compounds were dissolved in mixtures of PBS and ethanol (70:30).
# [2] = biological target: T3, human recombinant BACE-1 (hBACE-1) (Homo sapiens, UniProt P56817); assay: In vitro hBACE-1 inhibition (fluorometric method); assay type: biochemical
# T3 construct: purchased Invitrogen, Carlsbad, CA, USA
# Protocol: The inhibition of human recombinant BACE-1 (hBACE-1) (Invitrogen, Carlsbad, CA, USA) by hybrids 4–7 was evaluated by a fluorometric method. The substrate (Panvera peptide, 10 μL, 250 nM final concentration) was added to a solution (10 μL) of hybrids 4–7 or buffer in control wells (20 mM sodium acetate at pH 4.5, with 0.1% w/v CHAPS). After the addition of the enzyme (10 μL, 12.91 mU), the assay solution was incubated for 1 h at 37 °C. Thereafter, STOP solution (10 μL, 2.5 M sodium acetate) was added and the fluorescence was read at […]. The DMSO concentration in the assay solution was kept <5% (v/v) to ensure no significant loss of BACE-1 activity. The background signal, determined in control wells with all the components of the assay but BACE-1, was subtracted. The fluorescence intensities in the presence of increasing concentrations or in the absence of hybrids 4–7 were compared to calculate the percent of enzyme inhibition produced by the compounds, by applying the following expression: 100 − (IFi/IFo × 100), in which IFi and IFo are the fluorescence intensities in the presence and in the absence of the compounds, respectively. Additionally, the IC50 values were calculated (GraphPad Prism 4.03 software, GraphPad Software Inc., San Diego, CA, USA) and are given as the mean ± SEM of at least two experiments, each performed in triplicate.
# T2 sequence (P05067 672-713): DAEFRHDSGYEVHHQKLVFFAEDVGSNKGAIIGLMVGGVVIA
# T1 sequence (P10636 other isoform, or with tags, fused parts or gaps): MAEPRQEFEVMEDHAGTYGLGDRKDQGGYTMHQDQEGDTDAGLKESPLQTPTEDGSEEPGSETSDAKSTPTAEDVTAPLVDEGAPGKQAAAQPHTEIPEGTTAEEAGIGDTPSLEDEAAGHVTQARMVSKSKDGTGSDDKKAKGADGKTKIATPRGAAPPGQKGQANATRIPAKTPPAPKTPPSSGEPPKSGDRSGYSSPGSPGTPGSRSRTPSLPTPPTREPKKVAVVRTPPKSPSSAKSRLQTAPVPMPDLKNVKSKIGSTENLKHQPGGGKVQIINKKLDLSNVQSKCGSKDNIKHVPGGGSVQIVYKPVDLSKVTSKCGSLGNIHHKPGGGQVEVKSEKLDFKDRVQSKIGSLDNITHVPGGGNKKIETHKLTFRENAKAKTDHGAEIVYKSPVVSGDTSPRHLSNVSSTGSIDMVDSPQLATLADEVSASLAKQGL
# T3 sequence (P56817 46-501): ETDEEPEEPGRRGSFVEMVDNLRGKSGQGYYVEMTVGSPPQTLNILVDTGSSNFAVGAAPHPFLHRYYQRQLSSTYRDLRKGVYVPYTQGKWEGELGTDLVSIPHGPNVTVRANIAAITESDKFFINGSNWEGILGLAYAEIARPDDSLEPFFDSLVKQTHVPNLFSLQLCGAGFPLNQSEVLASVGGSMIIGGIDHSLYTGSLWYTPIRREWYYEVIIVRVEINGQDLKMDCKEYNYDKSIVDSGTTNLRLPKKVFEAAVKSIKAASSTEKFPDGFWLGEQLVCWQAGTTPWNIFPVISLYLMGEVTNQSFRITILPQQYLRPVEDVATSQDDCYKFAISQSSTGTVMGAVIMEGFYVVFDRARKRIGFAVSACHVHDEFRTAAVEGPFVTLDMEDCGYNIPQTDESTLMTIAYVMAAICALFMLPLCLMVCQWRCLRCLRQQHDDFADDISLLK
smiles,measurement,setting,value
"O=C(NCCCCCCCCNc1c2c(nc3cc(Cl)ccc13)CCCC2)c1ccc2nc(-c3ccc(Cl)cc3)c3c(c2c1)NCCC3 [DP128, reference compound]",Tau Aggregation % inh. @10 µM,tau aggregation,69.9 ± 0.7%
same,Aβ42 Aggregation % inh. @10 µM,Aβ42 aggregation,78.1 ± 1.7%
"CC(=O)[C@H]1CC[C@H]2[C@@H]3CCC4=CC(=O)CC[C@]4(C)[C@H]3CC[C@]12C [Progesterone, reference compound]",solubility at 2 h,physchem; Solubility,5.9 µM
"CN1C(C(=O)Nc2ccccn2)=C(O)c2ccccc2S1(=O)=O [Piroxicam, reference compound]",Experimental Pe Value,[1],2.2 ± 0.1 10^−6 cm s^−1
"O=c1c(O)c(-c2cc(O)c(O)c(O)c2)oc2cc(O)cc(O)c12 [Myr, myricetin, reference compound]",IC50,[2],4.18 ± 0.5 µM
"C[C@H]1O[C@@H](O[C@H]2[C@@H](O)C[C@H](O[C@H]3[C@@H](O)C[C@H](O[C@H]4CC[C@@]5(C)[C@H](CC[C@@H]6[C@@H]5C[C@@H](O)[C@]5(C)[C@@H](C7=CC(=O)OC7)CC[C@]65O)C4)O[C@@H]3C)O[C@@H]2C)C[C@H](O)[C@@H]1O [digoxin, reference compound]",solubility at 2 h,physchem,86.3 µM
